Laboratory results from PubChem BioAssay AID743178 (NMMLSC, 2013).
Active and inactive are the calls of the source.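 How the source made its calls: active means percent MAC1 positive of at least 15% at the highest dose, plus EC50 under 10 µM; inactive means the rest.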

System: not listed separately
Experiment: MAC1 induction in U937 cells – cell-based, MAC1 flow cytometry, set 1, SAR follow-up (AID 743178)
Settings: U937 myeloid differentiation, MAC1 flow cytometry, 4 d; at 10 µM (top of the series)

Row | SMILES | percent MAC1 positive
1 | O=C(CNC(=O)c1ccc(Cl)c(Cl)c1)N[C@@H]1CCCc2ccccc21 | 1.68% (inactive)
2 | O=C(NC1CCc2ccccc21)C1CCCN(C(=O)c2ccc(Cl)cc2)C1 (centres undefined) | 1.16% (inactive)
3 | O=C(Cc1ccc(Cl)cc1)NCCC(=O)N[C@@H]1CCCc2ccccc21 | 13.3% (inactive)
4 | O=C(CCCNC(=O)c1ccc(Cl)cc1)N[C@@H]1CCCc2ccccc21 | 1.04% (inactive)
5 | O=C(O)c1ccccc1OCc1ccccc1Br | 0% (inactive)
6 | COc1ccc(C(=O)NCCC(=O)N[C@@H]2CCCc3ccccc32)cc1 | 28.1% (inactive)
7 | Cc1ccc(C)c(OCCn2cc(C(=O)O)c3ccccc32)c1 | 0% (inactive)
8 | CC(NC(=O)C1CCCN(C(=O)c2ccc(Cl)cc2)C1)c1ccccc1 (centres undefined) | 1.23% (inactive)
9 | CC(NC(=O)CCNC(=O)c1ccc(Cl)cc1)c1ccc2c(c1)OCO2 (centres undefined) | 1.17% (inactive)
10 | CC(C)(C)OC(=O)NCCC(=O)N[C@@H]1CCCc2ccccc21 | 1.18% (inactive)
11 | O=C(CCCNC(=O)c1ccc(C(F)(F)F)cc1)N[C@@H]1CCCc2ccccc21 | 2.46% (inactive)
12 | N#Cc1ccc(C(=O)NCCC(=O)N[C@@H]2CCCc3ccccc32)cc1 | 0.711% (inactive)
13 | C[C@@H](NC(=O)CCNC(=O)c1ccc(Cl)cc1)c1ccccc1 | 1.51% (inactive)
14 | O=C(CCNC(=O)c1ccc(Cl)cc1)N[C@H]1CCCc2ccccc21 | 2.12% (inactive)
15 | O=C(CNC(=O)c1ccc(Cl)cc1)N[C@@H]1CCCc2ccccc21 | 1.65% (inactive)
16 | CC(C)(C)OC(=O)NCCC(=O)N[C@H]1CCCc2ccccc21 | 1.16% (inactive)

Row | SMILES | percent MAC1 positive
17 | CC(=O)NCCC(=O)N[C@@H]1CCCc2ccccc21 | 0.776% (inactive)
18 | O=C(CCCNC(=O)c1ccc(Cl)c(Cl)c1)N[C@@H]1CCCc2ccccc21 | 1.27% (inactive)
19 | Cc1cccc(C(=O)NCCC(=O)NC2CCCc3ccccc32)c1 (centres undefined) | 1.09% (inactive)
20 | COc1ccccc1C(C)NC(=O)CCNC(=O)c1ccc(Cl)cc1 (centres undefined) | 0.779% (inactive)
21 | O=C(CCNC(=O)c1ccc(Cl)cc1)NC1CCCCC1 | 1.63% (inactive)
22 | O=C(CNC(=O)c1ccc(C(F)(F)F)cc1)N[C@@H]1CCCc2ccccc21 | 1.08% (inactive)
23 | O=C(CCCNC(=O)c1ccc(OC(F)(F)F)cc1)N[C@@H]1CCCc2ccccc21 | 0.912% (inactive)
24 | NCCC(=O)N[C@@H]1CCCc2ccccc21 | 1.1% (inactive)
25 | O=C(CNC(=O)c1ccc(OC(F)(F)F)cc1)N[C@@H]1CCCc2ccccc21 | 1.56% (inactive)
26 | O=C(NC1CCOc2ccccc21)C1CCCN(C(=O)c2ccc(Cl)cc2)C1 (centres undefined) | 0.843% (inactive)
27 | O=C(O)c1cccnc1Nc1ccc(Cl)cc1 | 85% (inactive)
28 | O=C(CCNC(=O)c1ccccc1)N[C@@H]1CCCc2ccccc21 | 1.8% (inactive)
29 | O=C(CCNC(=O)c1ccc(Cl)cc1)N[C@@H]1CCc2ccccc21 | 6% (inactive)
30 | CC(NC(=O)CCNC(=O)c1ccc(Cl)cc1)c1ccc(F)cc1 (centres undefined) | 3.42% (inactive)
31 | CC(c1ccccc1)N(C)C(=O)CCNC(=O)c1ccc(Cl)cc1 (centres undefined) | 0.788% (inactive)

System: U937 myeloid differentiation, MAC1 flow cytometry, 4 d
Experiment: as above
Settings: not given

Row | SMILES | EC50 [µM]
32 | O=C(CCNC(=O)c1ccc(C(F)(F)F)cc1)N[C@@H]1CCCc2ccccc21 | 2.26
33 | O=C(CCNC(=O)c1ccc(OC(F)(F)F)cc1)N[C@@H]1CCCc2ccccc21 | 2.07
34 | O=C(CCNC(=O)c1ccc(Cl)cc1)N[C@@H]1CCCc2ccccc21 | 2.78
35 | O=C(CCNC(=O)c1ccc(Cl)cc1)NC1CCCc2ccccc21 (centres undefined) | 4.57
36 | O=C(CCNC(=O)c1ccc(Cl)c(Cl)c1)N[C@@H]1CCCc2ccccc21 | 3.4
37 | O=C(CCNC(=O)c1cccc(Cl)c1)N[C@@H]1CCCc2ccccc21 | 7.94
38 | Cc1ccc(C(=O)NCCC(=O)N[C@@H]2CCCc3ccccc32)cc1 | 4.21
39 | O=C(CCNC(=O)c1ccc2c(c1)OC(F)(F)O2)N[C@@H]1CCCc2ccccc21 | 4.41
